These results are taken from PubChem BioAssay (NCI).

Some test systems named below: SK-MEL-2 melanoma; DMS 273 small cell lung; KM20L2 colon; LXFL 529 NSCLC; SK-MEL-5 melanoma; SW-620 colon; UACC-257 melanoma; OVCAR-8 ovarian; NCI-H23 lung; OVCAR-4 ovarian; SF-268 CNS.
Assay in all cases: growth of human tumour cells (NCI), 48 h

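Briefly, cells in 96-well plates were exposed to five compound concentrations for 48 h, and endpoints were estimated by linear interpolation. TGI denotes the concentration required for complete inhibition of growth.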

`O=C(/C=C/c1ccco1)c1ccc(NCc2nc3ccccc3[nH]2)cc1`: the TGI in the assay on SK-MEL-2 melanoma came to 34.9 µM; in the assay with DMS 273 small cell lung, 35.8 µM; in the assay with KM20L2 colon, 35.1 µM; in the assay on LXFL 529 NSCLC, 28.5 µM; in the assay on SK-MEL-5 melanoma, 28.6 µM; in the assay on SW-620 colon, 34.3 µM. Moreover, the TGI in the assay on UACC-257 melanoma worked out at 23.2 µM; in the assay on OVCAR-8 ovarian it was 47.8 µM; in the assay on NCI-H23 lung, 27.5 µM; with OVCAR-4 ovarian it was 56.6 µM; with SF-268 CNS it was 46.4 µM.

Take `CC(=O)NC1C(OCc2ccccc2)OC(CO)C(O)C1OC(C)C(=O)N[C@@H](C)C(=O)N[C@H](CCC(=O)OCCNc1c2ccccc2nc2cccc([N+](=O)[O-])c12)C(N)=O` (some centres not stated): the TGI came out at 0.00414 µM with SK-MEL-2 melanoma; 0.00433 µM in the assay on DMS 273 small cell lung; 0.00247 µM in the assay with KM20L2 colon; 0.00267 µM with LXFL 529 NSCLC; 0.00855 µM with SK-MEL-5 melanoma; 0.00283 µM in the assay on SW-620 colon. Moreover, the TGI in the assay with UACC-257 melanoma worked out at 0.0201 µM; with OVCAR-8 ovarian, 0.028 µM; in the assay on NCI-H23 lung, 0.00545 µM; in the assay with OVCAR-4 ovarian, 0.0116 µM; with SF-268 CNS, 0.0343 µM.
